In assay [1] the target is T1, full length human TREX1 (Homo sapiens, UniProt Q9NSU2).
T1 construct: N-terminally His-Tev tagged full length human TREX1; made in house; host or cells: E. coli
T1 sequence (Q9NSU2 1-314): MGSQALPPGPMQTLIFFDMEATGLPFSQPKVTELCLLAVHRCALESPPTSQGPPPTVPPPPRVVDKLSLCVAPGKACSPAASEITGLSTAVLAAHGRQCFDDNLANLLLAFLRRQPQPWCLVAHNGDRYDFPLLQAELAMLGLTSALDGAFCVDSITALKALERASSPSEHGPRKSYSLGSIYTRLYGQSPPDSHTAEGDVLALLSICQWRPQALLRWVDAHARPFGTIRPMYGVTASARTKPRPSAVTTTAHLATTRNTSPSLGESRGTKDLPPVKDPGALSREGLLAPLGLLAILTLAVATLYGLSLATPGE
In words: hTREX1 Biochemical Assay (fluorescence, dsDNA substrate degradation). The conditions noted are these: biochemical, read-out: hTREX1 IC50. In short, it runs like this:
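Fluorescence rises as enzyme degrades a quenched TEX615-labelled dsDNA substrate (60 nM) in 50 mM Tris, 150 mM NaCl, 5 mM MgCl2, pH 7.4. Full-length His-Tev-tagged human TREX1, 4 pM, sits with compound 4 hours at 25° C before substrate; reaction 18 hours, stopped with EDTA.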

For assay [2], the target named is T1, full length human TREX1. Put plainly: TREX1 Kinetics Assays (TR-FRET association and dissociation, global fit with Kintek Explorer). It counts as binding. The conditions noted are these: for residence time: hTREX1, TR-FRET kinetics; for koff: hTREX1, TR-FRET, 25° C., global fit. The procedure: Compound binding kinetics were assessed using a pair of TR-FRET assays which measure the proportion of protein bound to a biotinylated TREX1 inhibitor (“probe”).
N-terminally His-Tev tagged full length human TREX1 (expressed in E. coli and purified in house), complexed with Eu-W1024-anti-6×His (“Eu”; PerkinElmer) in reaction buffer (50 mM Tris, 150 mM NaCl, 2 mM DTT, 0.1 mg/mL BSA, 0.01% (w/v) Tween-20, 5 mM MgCl2, pH 7.4) was combined with an equal volume of test compound in reaction buffer and incubated at 25° C. Concentrations at this stage were 1 nM TREX1/Eu complex, and four concentrations of compound (diluted from 10 mM stocks in 100% DMSO). At defined time points, 18 μL of this mixture was withdrawn and combined with 2 μL probe to a final concentration of 1 μM probe. After incubating for 30 seconds, 18 μL was withdrawn and combined with 2 μL streptavidin-allophycocyanin (“SA-APC”; PerkinElmer) to a final concentration of 1.5 μM SA-APC. Fifteen μL of this mixture was then immediately transferred to a 384-well Black ProxiPlate Plus (PerkinElmer) and read in an EnVision plate reader (PerkinElmer) measuring fluorescence at 615 nm and 665 nm following excitation w/337 nm laser light. Final concentrations were 0.8 nM TREX1/Eu complex, 0.9 μM probe, and 1.5 μM SA-APC.
N-terminally His-Tev tagged full length human TREX1 (expressed in E. coli and purified in house), complexed with Eu-W1024-anti-6×His (“Eu”; PerkinElmer) in reaction buffer (50 mM Tris, 150 mM NaCl, 2 mM DTT, 0.1 mg/mL BSA, 0.01% (w/v) Tween-20, 5 mM MgCl2, pH 7.4) was combined with an equal volume of test compound in reaction buffer. Concentrations at this stage were 100 nM TREX1/Eu complex and 100 nM test compound (diluted from 10 mM stocks in 100% DMSO). Following an equilibration period of at least an hour at 25° C., this mixture was diluted 100-fold into reaction buffer containing 1 μM probe, and incubated at 25° C. At defined time points, 36 μL of the reaction mixture was withdrawn and combined with 4 μL streptavidin-allophycocyanin (“SA-APC”; PerkinElmer) to a final concentration of 1.5 μM SA-APC. Fifteen μL of this mixture was then immediately transferred to duplicate wells of a 384-well Black ProxiPlate Plus (PerkinElmer) and read in an EnVision plate reader (PerkinElmer) measuring fluorescence at 615 nm and 665 nm following excitation w/337 nm laser light.
The TR-FRET signal, a ratio of 665 nm/615 nm emitted light, was converted to fraction enzyme bound to test compound by normalizing to low signal (no enzyme or test compound) and high signal (no test compound) controls. Data from both association and dissociation experiments were fitted globally using Kintek Explorer software, which computes the rate constants directly.

The values below come from patent US20240246946A1, “MODULATORS OF TREX1” (Constellation Pharmaceuticals, Inc., priority 2021, published 2024).

`Cc1ncc(C(c2ccccc2C#N)C(C)c2nc(C(=O)Nc3cnoc3)c(O)c(=O)n2C)cn1` (single isomer, unassigned) [Example 67 D1E2]: on full length human TREX1 [1], the IC50 is less than 1 nM. Moreover, on full length human TREX1 [2], the residence time was found to be 408 min and the koff was 4.08e-05 s⁻¹.
In the case of `Cc1cnc(C(c2ccccc2C#N)C(C)c2nc(C(=O)Nc3cnoc3)c(O)c(=O)n2C)cn1` (single isomer, unassigned) [Example 46 D1E2], on full length human TREX1 [2], the residence time came out at 346 min and the koff was 4.82e-05 s⁻¹.
